Test [1] is described as follows: Anti-inflammatory activity assessed using bovine serum albumin/egg albumin proteins assessed as protein denaturation measured at 95 degC for 20 mins by measuring turbidity by UV-Vis spectrophotometer. Type of test: functional.
Test [2] concerns Erythrocyte. Nature of the test: Anti-inflammatory activity in rat red blood cells assessed as stabilization of cell membrane at 200 microg/ml relative to control. Type of test: functional. To be noted: dose 200 µg/ml.
In test [3] the test system is Erythrocyte. Nature of the test: Anti-inflammatory activity in rat red blood cells assessed as stabilization of cell membrane at 500 microg/ml relative to control. To be noted: dose 500 µg/ml. Type of test: functional.
Test [4] concerns the target T1, Prostaglandin G/H synthase 1 (Ovis aries, UniProt P05979).
T1 sequence (P05979 whole entry): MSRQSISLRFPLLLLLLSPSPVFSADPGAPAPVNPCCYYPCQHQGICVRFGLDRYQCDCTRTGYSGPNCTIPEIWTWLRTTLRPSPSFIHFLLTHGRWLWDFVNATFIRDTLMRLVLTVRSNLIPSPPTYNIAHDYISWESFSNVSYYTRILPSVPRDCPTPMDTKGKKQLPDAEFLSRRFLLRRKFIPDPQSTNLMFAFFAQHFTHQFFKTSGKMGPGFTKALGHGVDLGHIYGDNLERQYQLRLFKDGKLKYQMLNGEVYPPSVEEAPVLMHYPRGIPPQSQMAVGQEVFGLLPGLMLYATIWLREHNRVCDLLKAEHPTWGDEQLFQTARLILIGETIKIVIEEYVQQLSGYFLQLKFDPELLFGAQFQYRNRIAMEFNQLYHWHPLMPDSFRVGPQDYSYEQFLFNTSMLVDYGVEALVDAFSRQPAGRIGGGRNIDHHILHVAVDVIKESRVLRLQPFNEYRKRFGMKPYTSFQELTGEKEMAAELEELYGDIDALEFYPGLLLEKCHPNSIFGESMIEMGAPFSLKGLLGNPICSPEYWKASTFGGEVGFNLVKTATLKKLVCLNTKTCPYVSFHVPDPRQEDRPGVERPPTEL
Kind of test: Inhibition of ovine COX-1 by EIA method.

Test [5] deals with Prostaglandin G/H synthase 1 (Homo sapiens, UniProt P23219). Nature of the test: Inhibition of COX-1 (unknown origin) at 40 uM relative to control.
Test [6] relates to Rattus norvegicus. Kind of test: Anti-inflammatory activity in Carrageenan-induced rat paw edema in Wistar rat assessed as increase in paw edema volume (reference value: 1.66 +/- 0.01). The class given is functional.
Test [7] has as its system Rattus norvegicus. Kind of test: Anti-inflammatory activity in Carrageenan-induced rat paw edema in Wistar rat assessed as increase in paw edema volume relative to control. Type of test: functional.
Test [8] relates to Rattus norvegicus. Nature of the test: Anti-inflammatory activity in Carrageenan-induced rat paw edema in Wistar rat assessed as increase in paw edema volume at 1 hr. The class given is functional.
For test [9], the system named is Rattus norvegicus. Kind of test: Anti-inflammatory activity in Carrageenan-induced rat paw edema in Wistar rat assessed as increase in paw edema volume at 1 hr relative to control. The class given is functional. A general note: In the carrageenan paw model, swelling and tenderness develop within hours.
Test [10] concerns Rattus norvegicus. Nature of the test: Anti-inflammatory activity in Carrageenan-induced rat paw edema in Wistar rat assessed as increase in paw edema volume at 2 hr. Type of test: functional.
Test [11] deals with Rattus norvegicus. Kind of test: Anti-inflammatory activity in Carrageenan-induced rat paw edema in Wistar rat assessed as increase in paw edema volume at 2 hr relative to control. Type of test: functional.
Test [12] deals with Rattus norvegicus. Kind of test: Anti-inflammatory activity in Carrageenan-induced rat paw edema in Wistar rat assessed as increase in paw edema volume at 4 hr. The class given is functional.
Test [13] concerns Rattus norvegicus. Nature of the test: Anti-inflammatory activity in Carrageenan-induced rat paw edema in Wistar rat assessed as increase in paw edema volume at 4 hr relative to control. Type of test: functional.
Test [14] deals with Rattus norvegicus. Nature of the test: Anti-inflammatory activity in Carrageenan-induced paw edema in Wistar rat assessed as inhibition of paw edema. The class given is functional.
For test [15], the system named is Rattus norvegicus. Nature of the test: Anti-inflammatory activity in Carrageenan-induced paw edema in Swiss albino rat assessed as inhibition relative to control. The class given is functional.
Test [16] has as its system Rattus norvegicus. Nature of the test: Anti-inflammatory activity in Carrageenan-induced paw edema in PO dosed rat model at 10 mg/kg assessed as inhibition of paw edema measured after 4 hrs relative to control. The class given is functional.
For test [17], the system named is Rattus norvegicus. Kind of test: Anti-inflammatory activity in Carrageenan-induced paw edema in PO dosed rat model at 20 mg/kg assessed as inhibition of paw edema measured after 4 hrs relative to control. Type of test: functional.
A short description of test [18]: Anti-inflammatory activity assessed as heat -induced protein denaturation using hen egg albumin at 31.25 ug/ml relative to control. The class given is functional. To be noted: dose 31.25 µg/ml.
Test [19] deals with T2, Polyunsaturated fatty acid 5-lipoxygenase (Homo sapiens, UniProt P09917).
T2 sequence (P09917 whole entry): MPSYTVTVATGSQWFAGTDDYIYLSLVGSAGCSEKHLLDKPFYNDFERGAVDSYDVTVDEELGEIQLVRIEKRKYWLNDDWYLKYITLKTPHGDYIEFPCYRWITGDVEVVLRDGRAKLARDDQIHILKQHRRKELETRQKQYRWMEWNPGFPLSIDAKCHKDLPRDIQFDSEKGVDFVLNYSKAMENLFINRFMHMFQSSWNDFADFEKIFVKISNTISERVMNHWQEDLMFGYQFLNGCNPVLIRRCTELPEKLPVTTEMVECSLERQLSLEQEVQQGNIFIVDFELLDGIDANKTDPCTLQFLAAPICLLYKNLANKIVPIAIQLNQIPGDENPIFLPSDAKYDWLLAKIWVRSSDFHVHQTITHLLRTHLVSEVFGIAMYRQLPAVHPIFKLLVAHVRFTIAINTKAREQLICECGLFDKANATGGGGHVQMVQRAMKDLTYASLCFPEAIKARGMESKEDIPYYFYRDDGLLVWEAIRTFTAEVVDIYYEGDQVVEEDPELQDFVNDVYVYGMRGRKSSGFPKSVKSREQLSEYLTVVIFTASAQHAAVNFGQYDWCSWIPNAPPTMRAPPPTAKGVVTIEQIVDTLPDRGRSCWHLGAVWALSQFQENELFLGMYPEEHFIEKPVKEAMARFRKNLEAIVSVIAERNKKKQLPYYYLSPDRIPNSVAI
Nature of the test: Inhibition of 5-LOX (unknown origin) after 5 mins by colorimetric method.

The subject of another test is Mus musculus. Kind of test: Anti-inflammatory activity in Carrageenan-induced paw edema in […] mouse model assessed as inhibition of edema at 200 mg/kg, po relative to control. Also on record: scale not given: the % may be the effect or the level left. Type of test: functional.
Test [20] has as its system Rattus norvegicus. Kind of test: Anti-inflammatory activity against Carrageenan-induced paw edema in PO dosed Wistar albino rat assessed as reduction in hind paw edema volume at 20 mg/kg relative to control. Type of test: functional. Details: scale not given: the % may be the effect or the level left.
Test [21] is described as follows: Selectivity index, ratio of IC50 for ovine COX1 to IC50 for recombinant human COX2.
The subject of test [22] is Rattus norvegicus. Kind of test: Anti-inflammatory activity against formalin-induced foot paw edema in PO dosed rat at 10 mg/kg assessed as inhibition of edema measured after 5 hr relative to control. Type of test: functional. Also on record: scale not given: the % may be the effect or the level left.
The subject of test [23] is Rattus norvegicus. Kind of test: Anti-ulcerative activity in aspirin induced Wistar rat ulcer model assessed as inhibition of ulcer index at 20 mg/kg,po. The class given is functional.
For test [24], the system named is Rattus norvegicus. Nature of the test: Anti-inflammatory activity against carrageenan-induced Albino Wistar rat paw edema model assessed as inhibition of rat paw edema at 50 mg/kg, po after 3 hrs relative to control. Details: scale not given: the % may be the effect or the level left. Type of test: functional.
Test [25] concerns Rattus norvegicus. Kind of test: Anti-ulcerative activity in Carrageenan-induced Sprague-Dawley rat ulcer model assessed as inhibition of ulcer index at 10 mg/kg,po. Type of test: functional.
A short description of test [26]: Anti-inflammatory activity assessed as protein denaturation using bovine serum albumin relative to control. The class given is functional.
Test [27] in a line: Inhibition of MAPK p38 (unknown origin). Also on record: species or system Homo sapiens.
Test [28] has as its system Rattus norvegicus. Kind of test: Anti-inflammatory activity in Carrageenan-induced rat paw edema in Wistar rat assessed as reduction in inhibition of edema measured after 4 hrs relative to control. Type of test: functional. Details: scale not given: the % may be the effect or the level left.

≈ marks a conversion by molar mass, not a printed value.

The term IC50 denotes the concentration at which inhibition is half-maximal. As usually defined, the inhibition is the percentage by which the read-out fell short of the control. The term ED50 denotes the dose at which the effect has come halfway, by size or by number of responders. The inhibition in vivo is the share of the control response that was lost under treatment.

Chain of Prostaglandin G/H synthase 1 (Homo sapiens, UniProt P23219) (P23219 whole entry): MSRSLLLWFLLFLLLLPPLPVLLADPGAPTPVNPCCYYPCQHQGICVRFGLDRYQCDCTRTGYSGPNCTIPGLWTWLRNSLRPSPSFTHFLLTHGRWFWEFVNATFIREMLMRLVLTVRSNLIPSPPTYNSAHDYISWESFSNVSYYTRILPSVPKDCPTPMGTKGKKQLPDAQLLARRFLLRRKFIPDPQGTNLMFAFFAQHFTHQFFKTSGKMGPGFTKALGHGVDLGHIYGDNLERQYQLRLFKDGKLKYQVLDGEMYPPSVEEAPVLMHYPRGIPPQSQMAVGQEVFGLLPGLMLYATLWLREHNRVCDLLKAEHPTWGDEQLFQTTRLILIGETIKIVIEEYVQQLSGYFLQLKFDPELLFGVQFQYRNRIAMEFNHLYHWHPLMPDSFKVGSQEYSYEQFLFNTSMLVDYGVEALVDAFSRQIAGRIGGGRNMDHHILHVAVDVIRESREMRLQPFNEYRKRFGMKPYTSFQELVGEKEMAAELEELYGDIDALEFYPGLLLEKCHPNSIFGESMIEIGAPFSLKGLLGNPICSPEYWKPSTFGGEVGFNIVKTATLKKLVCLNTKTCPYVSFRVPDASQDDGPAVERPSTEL

With `Cc1ccc(-c2nn(-c3ccccc3)cc2CCC(=O)OCc2cn(-c3ccc([N+](=O)[O-])cc3)nn2)cc1`, the half-maximal inhibitory concentration (IC50) in test [1] is 57.24 µg/mL (≈ 113 µM). The Activity stood at 74% with Erythrocyte [2] and 97% in the test with Erythrocyte [3].
Consider `C[C@H](NC(=O)c1nc2c(cnn2-c2ccccc2)c(=O)[nH]1)c1ccccc1`, for which, in test [4], half-maximal inhibition (IC50) was put at 28.4 µM. In addition, the inhibition in [5] stood at 73.4%. The Activity is 1.05 mL in the test with Rattus norvegicus [6], 1.5 mL with Rattus norvegicus [8], 1.69 mL in the test on Rattus norvegicus [10] and 2.01 mL in the test on Rattus norvegicus [12]. Further, the “inhibition (INH)” value in the test on Rattus norvegicus [7] turned out to be 64%; with Rattus norvegicus [9], 64%; in the test on Rattus norvegicus [11], 65%; in the test with Rattus norvegicus [13], 64%; in the test on Rattus norvegicus [15] it was 51%. The ED50 in the test on Rattus norvegicus [14] is 7.6 mg/kg.
As to `Cc1nn(-c2ccccc2)c2c1C(c1ccc([N+](=O)[O-])cc1)N1C=CC=NC1=N2` (centres undefined), the inhibition in vivo at 10 mg/kg in the test with Rattus norvegicus [16] came to 73%. For the same compound, the inhibition in vivo at 20 mg/kg in the test with Rattus norvegicus [17] came out at 80%.
For the compound `Cc1c(/N=C/c2c(OCc3cc(=O)oc4cc(O)ccc34)ccc3ccccc23)c(=O)n(-c2ccccc2)n1C`, in [18], the Activity came to 67.3%.
Compound `Cc1ccc(N/N=C2\C(=N)N(c3ccc(S(N)(=O)=O)cc3)N=C2N)cc1` had an IC50 in test [19] of 1.92 µM. For the same compound, the Activity in the test with Mus musculus is recorded as 15%.
In the case of `COc1ccc(N/N=C2\C(=O)N(CNc3c(C)cccc3C)N=C2Nc2ccccc2F)cc1`, the Activity with Rattus norvegicus [20] was found to be 51%.
As for `COc1ccc(N2C(=O)/C(=C/c3cn(-c4ccc(S(C)(=O)=O)cc4)nc3-c3cccc(Cl)c3)NC2=S)cc1`, the Selectivity Index in test [21] worked out at 9.32. In the test on Rattus norvegicus [22], the Activity is on record as 60%. Further, the UI with Rattus norvegicus [23] is reported as 2.64.
Regarding `CS(=O)(=O)c1ccc(-n2cc(/C=N/Nc3ccc(S(N)(=O)=O)cc3)c(-c3ccc(Br)cc3)n2)cc1`, the Activity with Rattus norvegicus [24] is recorded as 80%. For the same compound, the UI with Rattus norvegicus [25] worked out at 3.77.
`COc1ccc(NC(=O)c2ccc(Nc3ncnc4c3cnn4-c3ccccc3)cc2)cc1`: the Activity was 80.2% in test [26] and 76.35% in the test with Rattus norvegicus [28]. In test [27], half-maximal inhibition (IC50) was put at 0.038 µM.
